Source: publication PMC11744668, “2-Cyanopyrimidine-Containing Molecules for N-Terminal Selective Cyclization of Phage-Displayed Peptides” (ACS Chemical Biology, 2025)
“Also recorded” adds a separate entry of the source.

Key:
[1] = Peptide cyclization kinetics with model peptide CGK-5; details: 500 μM CGK-5, 550 μM linker, RT; for cyclization of CGK-5 (in words): ABC buffer pH 7.4, 1 mM TCEP, 2 h, LC-MS; for half-life of the cyclization reaction with CGK-5: ammonium bicarbonate (ABC) buffer, TCEP, HPLC, one-phase association, mean ± 95% CI, at least three independent experiments
Excerpt: While pCAmCP and mCAmCP gave efficient cyclization of the peptide fusion of sfGFP, we looked to further investigate the specificity of the reaction using peptide kinetic assays. To do this, we first established reactivity of the compounds with a model peptide (CGK-5, Figures 3A and S16) that was composed of two cysteines flanking a region tuned for solubility in buffer (GGKGG) and with a tryptophan residue on the C-terminus for UV absorbance. […] To test the specificity of the reaction for the N-terminal cysteine, we synthesized a peptide analogue (CGK-5Abu, Figures 3D–F and S17) that contained 2-aminobutyric acid in place of the N-terminal cysteine. […] Since these reactions occurred at 500 μM of peptide to allow for analysis on the HPLC, we envision this difference will likely be exaggerated when using lower peptide/protein concentrations. Although it is unlikely at neutral pH, the chloroacetamide moiety can possibly react with nucleophilic amino acids other than cysteine. To defuse this concern, we designed a peptide containing a variety of possibly nucleophilic residues (serine, arginine, tyrosine, histidine, and lysine, but not an internal cysteine) adjacent to the N-terminal cysteine (BCP, Figure S18) and let the peptide react with pCAmCP or mCAmCP. […] On the other hand, peptides that contained an internal cysteine were nearly completely reacted with the chloroacetamide after less than 2 h at the same concentrations (Figure 3B,C). This indicates high specificity for the chloroacetamide reacting with an internal cysteine in comparison to other nucleophilic residues at pH 7.4. […] It could be that the side reaction with TCEP may help mask the chloroacetamide after long incubation periods to prevent it from reacting with less reactive nucleophiles.
The peptide (CGK-5 or CGK-5Abu, 5 mM stock in water) was diluted to 500 μM in ammonium bicarbonate buffer (50 mM, pH 7.5) containing 1.2 mM TCEP. Following dilution of the peptide, the organic linker (10 mM in DMSO) was added to a final concentration of 550 μM. The reaction mixture was incubated while being shaken at RT. At each time point (5, 10, 15, 30, 45, 60, 120, and 240 min), 5 μL of reaction mixture was removed, and the reaction was quenched by the addition of 5 μL of 100 mM cysteine. Following dilution with 20 μL of water, the sample was then analyzed on a Shimadzu HPLC with an LCMS-2020 mass spectrometer attached (10–40% ACN gradient in H2O over 6 min, 0.1% formic acid, 1 mL/min flow rate, Shimadzu C18 250 × 4.6 mm, 5 μm). Peaks corresponding to the cyclized and unreacted forms were then integrated on the Shimadzu LabSolutions software, plotted in GraphPad Prism, and fitted using a one-phase association fitting parameter to determine reaction half-lives.

[2] = test system: phages (12mer phagemid library); experiment: Phage infectivity (toxicity) assay, colony-forming unit assay; details: 50–200 μM linker, 22 or 37 °C, 3 or 24 h, 1 mM TCEP; cfu assay, n = 3
Experimental: For all experiments, phages were quantified via a colony-forming unit assay. In this assay, serial dilutions of the phage solution were prepared in 2× YT media, and 10 μL of each dilution was added to 90 μL of log-phase E. coli ER2738. Following the addition of the phage dilutions, the culture was incubated at 37 °C for 45 min, and then 10 μL was spotted in triplicate onto agar selection plates containing either 100 μg/mL ampicillin and 10 μg/mL tetracycline, which were incubated at 37 °C overnight. The following day, colonies in each spot were counted, and this number was used to calculate the number of colony-forming units in the solution.
The purified 12mer phagemid library in binding buffer was incubated with 1 mM TCEP at 37 °C for 30 min. The reduced phages were then reacted with linkers (pCAmCP or mCAmCP) or DMSO equivalents at varying concentrations (50, 100, and 200 μM) and temperatures (22 or 37 °C) for varying times (3 or 24 h). Following incubation under the various conditions, the phage solutions were then titered by using the previously described colony-forming unit assay.

[3] = test system: CA5C phages (N-terminal cysteines displayed on pIII); experiment: Biotin pulldown (capture) assay of CA5C phages; details: 100 μM linker, RT; Biotin-CBT, streptavidin beads; vs control phage AAKAA; n = 3
Excerpt: Following the characterization of the linkers for efficient cyclization of peptides, we then looked to characterize pCAmCP and mCAmCP for reactivity toward phage proteins. Some previously developed linkers that generate macrocyclic peptide libraries on phage hinder phage infectivity, which is likely from modifying cysteines within phage coat proteins.[26]−[28] To test if this occurred in the novel linkers, we performed toxicity assays that reacted the phages with different concentrations of linker (50–200 μM), temperatures (22 or 37 °C), and reaction times (3 or 24 h). […] We expressed phages with a CA5C peptide on the N-terminus of pIII. […] Following the precipitation of the phages, they were again reduced with TCEP and were incubated with a Biotin-CBT compound to label any unreacted N-terminal cysteines with biotin, allowing for phage capture on streptavidin beads (Figure 4B). […] Comparison with capture levels of unreacted phages indicated at least 80% and 70% reactivity of pCAmCP and mCAmCP with the CA5C phages, respectively. […]
The purified CA5C phages (10^11 to 10^12 cfu, 98 μL) in binding buffer were incubated with 1 mM TCEP at 37 °C for 30 min. […] Percent phages captured was calculated by (phages input – phages in supernatant)/phages input × 100.

Compound	cyclization of CGK-5 (in words) [1]	half-life of the cyclization reaction with CGK-5 [1] [min]	phage toxicity (in words) [2]	percent of phages captured after linker reaction (in words) [3]
N#Cc1nccc(NC(=O)CCl)n1 [mCAmCP, 2-chloro-N-(2-cyanopyrimidin-4-yl)acetamide]	nearly complete cyclization of the peptide after 2 h	13 ± 3	No toxicity was observed under any of the conditions tested; also recorded: without hindering infection	reduced to levels similar to those of a control phage that lacked N-terminal cysteines
N#Cc1ncc(NC(=O)CCl)cn1 [pCAmCP, 2-chloro-N-(2-cyanopyrimidin-5-yl)acetamide]	nearly complete cyclization of the peptide after 2 h	23 ± 5	No toxicity was observed under any of the conditions tested; also recorded: without hindering infection	reduced to levels similar to those of a control phage that lacked N-terminal cysteines
